Experimental data published in patent US10568324B2, “Agricultural and horticultural material, and plant cultivation method which promote coloring in fruit” (AJINOMOTO CO., INC., priority 2015, dated 2020).
≈ marks a conversion by molar mass, not a printed value. Like-named read-outs stand apart in the source and are kept apart here.

Key:
[1] = cited from earlier work
[2] = tested on: grape cultured cells (VR calluses); experiment: Anthocyanin content in grape calluses treated with various amino acids (Reference Example 1(1)); type: cell-based, Vitis vinifera L.; conditions: 5 days
Procedure: Cells derived from a European grape cell line (Vitis vinifera L.; RIKEN BioResource Center; VR, management number RPC00003) were subcultured on MS agar medium. The subcultured VR calluses (i.e. cell clusters) were each transferred to MS agar medium containing 5 mM of each amino acid solution, and cultured. As a positive control, 100 μM abscisic acid (ABA) was added, which is a known color-promotor. Five days after the transfer, each callus was freeze-dried and ground, and anthocyanin was extracted with a 1% HCl solution in MeOH.

[3] = tested on: Cabernet Sauvignon grape plants; experiment: Effect of isoleucine on coloring of grape berries, sprinkled on bunches in test farm (Reference Example 1(2)); type: in vivo; conditions: 10 mM Ile + 0.1% Applauch BI sprinkled on bunches in veraison period; FIG. 1
Procedure: Cabernet Sauvignon grape plants that had been cultivated in a test farm and had entered into the veraison period were chosen for this experiment. Eight bunches of grapes on each of two grape plants, 16 bunches of grapes in total, were selected for each test group. On each bunch of grapes, about 6.25 mL of 0.1% Applauch BI (Kao, control), 1 g/L of abscisic acid (ABA)+0.1% Applauch BI (positive control), or 10 mM isoleucine (Ile)+0.1% Applauch BI was sprinkled. As samples, 4 bunches for each test group were collected 4 times. Anthocyanin present in the pericarps was extracted with a mixed solution of water and acetone (1:2), and the anthocyanin content was measured in the same manner as described above.

Row | Compound | solubility in water ([1]; 20° C.) [g/L] | solubility in water ([1]; 50° C.) [g/L] | solubility in water [1] | Relative content of anthocyanin ([2]; 5 mM amino acid in MS agar medium, relative to positive control 100 μM ABA taken as 100%) [%] | anthocyanin content of callus (in words) ([2]; 5 mM amino acid, compared among the amino acids of Table 1) | anthocyanin content in pericarps [3]
1 | CC(C)C[C@H](N)C(=O)O [Leu, leucine] | 24 (≈ 183 mM) | 29 (≈ 221 mM) | about 0.2 M | – | – | –
2 | C[C@H](N)C(=O)O [Ala] | – | – | – | 7 | – | –
3 | N[C@@H](Cc1ccccc1)C(=O)O [Phe, phenylalanine] | 27 (≈ 163 mM) | 40 (≈ 242 mM) | about 0.2 M | – | – | –
4 | CC[C@H](C)[C@H](N)C(=O)O [Ile, isoleucine] | – | – | about 0.3 M | – | highest anthocyanin content | increased
